Assay results as given in article PMC11784359 (Antimicrobial Agents and Chemotherapy, 2024).
Values after ≈ are worked out from the molar mass of the structure shown. Values joined by “and” are separate entries in the source; they are usually repeats but may differ in a detail not shown here. Equal entries are not always repeated. Where two headings read alike, the source gives them in different places. Marks after values point to notes of the source that are not given here.

Assays:
[1] = test system: Staphylococcus aureus ATCC 29213; test: microbe, parasite or virus in culture; format: cell-based
[2] = test system: Escherichia coli ATCC 25922; test: microbe, parasite or virus in culture; format: cell-based
[3] = test system: Burkholderia pseudomallei; test: microbe, parasite or virus in culture; format: cell-based
[4] = test system: Pseudomonas aeruginosa ATCC 27853; test: microbe, parasite or virus in culture; format: cell-based
[5] = test system: B. pseudomallei strain K96243; set-up: species or system Burkholderia pseudomallei; settings: in vivo
biothreat pathogens = format: cell-based
[6] = test system: Escherichia coli, Klebsiella pneumoniae, and Pseudomonas aeruginosa; settings: cited from earlier work
[7] = mouse, in vivo
[8] = mouse, in vivo; remark: listed apart in the source

CC(C)(O/N=C(\C(=O)N[C@@H]1C(=O)N2C(C(=O)[O-])=C(C[n+]3ccccc3)CS[C@H]12)c1csc(N)n1)C(=O)O [Ceftazidime, ceftazidime, reference compound]
MIC ([1]; Staphylococcus aureus, ATCC29213): 8 µg/mL (≈ 14.6 µM)
MIC ([2]; Escherichia coli, ATCC25922): 0.12 µg/mL (≈ 0.22 µM)
MIC50 [3]: 2 µg/mL (≈ 3.66 µM)
MIC90 [3]: 8 µg/mL (≈ 14.6 µM)
MIC ([3]; NCTC4845): 2 µg/mL (≈ 3.66 µM)
MIC ([4]; Pseudomonas aeruginosa, ATCC27853): 1 µg/mL (≈ 1.83 µM)
Survival log-rank (Mantel–Cox) test P [5]: <0.0001^a
day average body weight started to decline again [5]: 11 days
day mean body weight began to recover [5]: > 5 days
survival at the end of the 29-day observation phase [5]: 20%
survival during the treatment phase [5]: 70%

C[C@@](O)(C(F)F)[C@H](NC(=O)c1ccc(C#CC#CC2CC2)cc1)C(=O)NO [LPC-233]
MIC [1]: >16 µg/mL
MIC [2]: ≤0.008 µg/mL
MIC90 values for biothreat pathogens, folds lower than previous compounds such as ACHN-975 (biothreat pathogens): 4–8 folds
predicted MIC shift based on plasma protein unbound fraction [6]: ~ 30 fold
shift of MIC values in the presence of 50% mouse plasma [6]: 4–9 fold
Clearance [7]: 14.7 mL/min/kg
period plasma concentration remained above MIC90 [7]: ≥ 24 h
AUCELF (0–48 h) ([7]; 100 mg/kg): 334.6 µg·h/mL
AUCplasma (0–48 h) ([7]; 100 mg/kg): 398.6 µg·h/mL
ELF penetration (AUCELF/AUCplasma, 0–48 h) ([7]; 100 mg/kg): 83.9%
MIC [4]: 0.25 µg/mL (≈ 0.664 µM)
P, rescue of mice from infection in comparison with the vehicle [5]: < 0.0001
average body weight after recovery [5]: maintained a steady average weight to the end of the study
bacterial burden in the lungs at study termination compared to ceftazidime-treated animals [5]: reduction of CFUs in the lungs
day average body weight declined again [5]: 15 days and 25 days
day mean body weight began to recover (turning point) [5]: 4 days and 2 days
final survival rate at the end of the observation period [5]: 60% and 80% and 90%
median time to death [5]: 6.3 days
recovery of average body weight [5]: did not recover
survival [5]: did not support survival
survival during the treatment phase [5]: 100%
P range, survival/times to death versus the ceftazidime group ([5]; 30 mg/kg): 0.001–0.05
time following the last dose without deaths ([5]; 30 mg/kg): 15 days
Survival log-rank (Mantel–Cox) test P ([5]; 90 mg/kg): 0.5
Survival log-rank (Mantel–Cox) test P ([5]; ip, 90 mg/kg): <0.0001^a and 0.009^a
Survival log-rank (Mantel–Cox) test P ([5]; po, 10 mg/kg): <0.0001^a and 0.008^a
Survival log-rank (Mantel–Cox) test P ([5]; po, 30 mg/kg): <0.0001^a and 0.05^a
Survival log-rank (Mantel–Cox) test P ([5]; po, 90 mg/kg): <0.0001^a and 0.001^a
concentration of the drug in ELF samples ([8]; 30 mg/kg): 100 to 400 ng/mL
increase in AUC, 100 mg/kg IP compared to oral 100 mg/kg ([8]; 100 mg/kg): 2 fold
increase in Cmax, 100 mg/kg IP compared to oral 100 mg/kg ([8]; 100 mg/kg): 2 fold
Inf fT > MIC (free time above MIC) ([8]; ip, 100 mg/kg): ≥6 h
Inf fT > MIC (free time above MIC) ([8]; po, 10 mg/kg): ≥6 h
Inf fT > MIC (free time above MIC) ([8]; po, 30 mg/kg): ≥6 h
Inf fT > MIC (free time above MIC) ([8]; po, 100 mg/kg): ≥6 h
